Source: US10264976B2, “Biocompatible flavonoid compounds for organelle and cell imaging” (The University of Akron, priority 2015, dated 2019)

Tests used:
[1] = test system: mitochondria in CCCP-treated hMSCs; test: Effects of CCCP on uptake of dyes; format: cell-based, human; settings: for specificity to mitochondria after CCCP treatment / uptake / imaging signal (sensitivity) after CCCP treatment: hMSCs pre-treated with 10 μM CCCP for 30 min, 5 μM dye, 25 nM MT, 25 min
Source text: Mitochondria can continuously oxidize substrates and maintain a proton gradient across the lipid bilayer with very large membrane potential (−180 mV). The membrane potential as the major driving force enables the entrance and accumulation of the cationic species into mitochondria rather than cell plasma. CCCP is an uncoupler that causes rapid acidification of mitochondria and dysfunction of ATP synthase resulting in the decrease of mitochondrial membranes potential. To confirm the tolerances of MC-Mito1 and MC-Mito2, carbonyl cyanide m-chlorophenylhydrazone (CCCP) was used to treat the cells prior to the staining procedure.
It was expected because CCCP-induced decrease of membranes potential will severely affect the direction and accumulation of cationic mitochondrial probes. The most of commercial mitochondrial probes are suffered by the similar limitation. […] Compared with MC-Mito1, MC-Mito2 has longer hydrophobic linker between the flavone dye and the cation. Since mitochondrial membrane is composed of phospholipid bilayers and proteins, the stronger lipophilicity has been supposed to play an important role in retaining the specificity of MC-Mito2 in CCCP-treated cells.
The hMSCs were treated with 10 μM carbonyl cyanide m-chlorophenylhydrazone (CCCP) for 30 min. and then were washed with fresh medium. After that, the cells were incubated with 5 μM MC-Mito1 and 25 nM MT, 5 μM MC-Mito2 and 25 nM MT for 25 min at 37° C., respectively. After staining, the cells were imaged by microscope without PBS solution washing procedure.

[2] = test system: mitochondria in hMSCs; test: Co-staining with Mitotracker red CMXRos (subcellular distribution); format: cell-based, human; settings: 5 μM dye and 25 nM MT, 25 min
Protocol: To determine the subcellular distribution of the probes in living cells, the MT were co-incubated with MC-Mito1 and MC-Mito2, respectively. […] Despite that the decrease of membranes potential will severely affect the direction and accumulation of cationic mitochondrial probes.
Human mesenchymal stem cells (hMSCs) (Lonza, Walkersville, Md.) were cultured in serum-containing MSCBM medium (Lonza) supplemented with MSCGM SingleQuots (Lonza) according to manufacturer's specifications. hMSCs (Passage 5) were seeded at a density of 5.0×10^4 cell/cm^2. For co-staining experiments, the hMSCs were seeded on 12-well plate, cultured in MSCBM medium (Lonza) supplemented with MSCGM SingleQuots (Lonza), and incubated with 5 μM MC and 25 nM Mitotracker® red CMXRos (MT), 5 μM MC-Br and 25 nM MT, 5 μM MC-Mito1 and 25 nM MT, 5 μM MC-Mito2 and 25 nM MT for 25 min at 37° C., respectively. Each well contains 1 ml of medium and 0.05 ml DMSO (dissolving probe). The cell imaging was obtained on a Zeiss inverted fluorescence microscopy with X-Cite Series 120Q. The blue channel filter: excitation 365 nm, beam splitter FT 395 nm, emission 445/50 nm. The green channel filter: excitation 450-490 nm, beam splitter FT 510 nm, emission 515-565 nm. The red channel filter: excitation 587/25 nm, beam splitter FT 605 nm, emission 647/70 nm.

[3] = test system: hMSCs; test: Cytotoxicity determined by MTT method; format: cell-based, human; settings: for cell viability: hMSCs, 0, 2, 5, 10 μM, 24 h
Protocol: Before the application for cell imaging, the cytotoxicity of MC-Mito1 and MC-Mito2 were evaluated by the widely used MTT assay to evaluate the tolerance of sensors to their working concentrations. The samples were incubated with 0, 2, 5, 10 μM MC-Mito1, MC-Mito2 and Mitotracker® red CMXRos (MT) for 24 h, respectively (FIG. 5). […] In contrast, only less than 10% of the cells were viable after incubation with 5 μM of commercial mitochondrial dye MT for 24 hours. […] The hMSCs were seeded in 12-well plates at a density of 5.0×10^4 cell/cm^2. After 24 h incubation, the cells were exposed to a series of doses of probe MC-Mito1 or MC-Mito2, and MT at 37° C. The concentration of MT (0, 2, 5, 10 μM) was similar as reported in literature.^28 After 24 hours, MTT solution (sigma) was added and kept 3 h in the incubator. MTT solubilization solution was then added into each well and the plate was gently shaken for 10 min at room temperature. The absorbance of MTT in the sample well was determined by subtracting the absorbance of the sample well from corresponding control well. Cell viability was expressed by the ratio of the absorbance of MTT in the sample wells to that of the cells incubated with culture medium only.

[4] = UV absorption and fluorescence spectra of the dyes; settings: for Stokes shift: in DMSO; for absorption maxima / emission maxima: in DMSO solution
[5] = target: bovine serum albumin (BSA) (Bos taurus, UniProt P02769); test: Fluorescence response upon addition of bovine serum albumin; format: binding; settings: 2 equivalents of BSA; 2 μM probe, 1 mM HEPES buffer (1% DMSO); at 495 nm (MC-Mito1) / 490 nm (MC-Mito2)
Protocol: FIG. 4B provides a graph showing the fluorescence intensity changes of MC-Mito1 in the presence of increasing concentrations of BSA in 1 mM HEPES buffer (1% DMSO). [MC-Mito1]=[MC-Mito2]=2 μM, [BSA]=0˜4 μM. λex=400 nm.
FIG. 11 is a chart showing fluorescence spectra of DMAF ([DMAF]=10 μM, 1 mM HEPES buffer containing 1% DMSO, pH=7.4) upon addition of different concentration of BSA ([BSA]=0-10 μM, 1 mM HEPES).
MC-Mito1 and MC-Mito2 were nearly non-fluorescent in water (QYs <1%), due to specific H-bonding interaction of water solvents with H-bond acceptor carbonyl groups in flavone skeleton. However, upon addition of bovine serum albumin (BSA) into probe water solution, the fluorescence intensity increased sharply (FIG. 4A-D). After addition of 2 equivalent of BSA, the fluorescence intensity of MC-Mito1 at 495 nm was enhanced by about 17-fold, which was accompanied with a large blue-shift (from 540 nm to 495 nm, FIGS. 4A and 4B). […] By using rhodamine 6G in ethanol (QY=95%) as a reference, the fluorescence quantum yield (QY) of MC-Mito1 and MC-Mito2 were determined to be 28% and 33%, respectively. […] The high signal-to-noise ratio (>10) enables the simple wash-free in vivo fluorescence imaging. […]

[6] = Fluorescence quantum yield (rhodamine 6G standard); format: physicochemical; settings: rhodamine 6G in ethanol as reference; reported after BSA addition experiment
Source text: The fluorescence quantum yields were obtained using rhodamine 6G (sigma) as the standard (Φfl=0.95, ethanol). The fluorescence quantum yields can be calculated by using the following Eq: Φs=Φr×(Ar×ns^2×Fs)/(As×nr^2×Fr) where the subscripts s and r refer to the sample and the standard, respectively. Φ is the quantum yield, F is the integrated emission intensity, A is the absorbance, and n is the refractive index. Zebrafish Breeding and Imaging

[7] = test system: hMSCs; test: Cell staining efficiency without washing process; format: cell-based, human
Protocol: To assess their cell staining efficiencies, the hMSCs cells were incubated with MT, MC-Mito1 and MC-Mito2, respectively. Cell staining was continuously recorded in 3 min, 10 min and 25 min without washing process. It was found MC-Mito1 and MC-Mito2 quickly stained the living cells in 10 mins. In contrast, the MT acquired longer time to efficiently stain cells. The fluorescence signal of MC-Mito1 and MC-Mito2 from the ‘blue channel’ on fluorescence microscope (420-470 nm) were confined in cells with a negligible background signal from the culture medium, supporting the hypothesis that the flavone dyes gave higher emission in low-polar environment. Generally, the S/N ratios in fluorescent images were above 3, which could be considered acceptable for the discrimination of mitochondria. Therefore, this wash-free method could be a useful probe for real-time monitor of mitochondrial changes.
Human mesenchymal stem cells (hMSCs) (Lonza, Walkersville, Md.) were cultured in serum-containing MSCBM medium (Lonza) supplemented with MSCGM SingleQuots (Lonza) according to manufacturer's specifications. hMSCs (Passage 5) were seeded at a density of 5.0×10^4 cell/cm^2. […] The cell imaging was obtained on a Zeiss inverted fluorescence microscopy with X-Cite Series 120Q. […]

Sequence of bovine serum albumin (BSA) (P02769 25-607): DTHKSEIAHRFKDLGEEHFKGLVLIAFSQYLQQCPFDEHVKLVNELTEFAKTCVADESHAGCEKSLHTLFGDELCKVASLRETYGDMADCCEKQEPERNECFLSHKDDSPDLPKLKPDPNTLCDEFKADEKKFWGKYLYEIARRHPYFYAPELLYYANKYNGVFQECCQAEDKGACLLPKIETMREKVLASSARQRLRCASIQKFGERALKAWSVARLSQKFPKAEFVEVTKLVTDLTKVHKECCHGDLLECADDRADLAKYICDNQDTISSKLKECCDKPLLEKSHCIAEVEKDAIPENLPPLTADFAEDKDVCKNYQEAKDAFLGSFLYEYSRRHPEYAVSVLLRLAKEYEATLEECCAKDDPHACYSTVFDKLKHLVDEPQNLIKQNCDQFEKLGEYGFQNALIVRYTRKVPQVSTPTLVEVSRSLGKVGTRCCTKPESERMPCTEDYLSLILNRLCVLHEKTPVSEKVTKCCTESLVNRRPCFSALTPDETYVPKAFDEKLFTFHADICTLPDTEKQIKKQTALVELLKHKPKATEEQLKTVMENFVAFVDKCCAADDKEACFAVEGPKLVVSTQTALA

## N#CC(C#N)=NNc1cccc(Cl)c1 [CCCP, carbonyl cyanide m-chlorophenylhydrazone, reference compound]
[1]; hMSCs, 10 μM CCCP for 30 min
  mitochondrial morphology: mostly transformed to small and dispersed fragments

## O=c1c(O)c(-c2ccc(N3CCOCC3)cc2)oc2ccccc12 [MC, 3-hydroxy-2-(4-morpholinophenyl)-4H-chromen-4-one]
[2]
  co-localization with MT (mitochondria): almost no co-localization with MT

## O=c1c(OCCCCCCBr)c(-c2ccc(N3CCOCC3)cc2)oc2ccccc12 [MC-Br, 3-(6-bromohexyloxy)-2-(4-morpholinophenyl)-4H-chromen-4-one]
[2]
  co-localization with MT (mitochondria): almost no co-localization with MT

## O=c1c(OCCC[P+](c2ccccc2)(c2ccccc2)c2ccccc2)c(-c2ccc(N3CCOCC3)cc2)oc2ccccc12.[Br-] [MC-Mito1, (3-(2-(4-morpholinophenyl)-4-oxo-4H-chromen-3-yloxy)propyl)triphenylphosphonium bromide]
[2]
  co-localization with MT (mitochondria): matched those stained with MT (red channel) very well
[3]
  cell viability: ~100%
[4]
  Stokes shift: ~127 nm
  absorption maxima: 373 nm
  emission maxima: 500 nm
[5]
  fluorescence intensity enhancement: about 17 fold
[1]
  specificity to mitochondria after CCCP treatment: almost no more specificity to mitochondria
  uptake / imaging signal (sensitivity) after CCCP treatment: extremely weaker imaging signal than that in normal cells
[6]
  fluorescence quantum yield (QY): 28%

## O=c1c(OCCCCCC[P+](c2ccccc2)(c2ccccc2)c2ccccc2)c(-c2ccc(N3CCOCC3)cc2)oc2ccccc12.[Br-] [MC-Mito2, (6-(2-(4-morpholinophenyl)-4-oxo-4H-chromen-3-yloxy)hexyl)triphenylphosphonium bromide]
[2]
  co-localization with MT (mitochondria): matched well with MT
[3]
  cell viability: ~100%
[4]
  Stokes shift: ~127 nm
  absorption maxima: 373 nm
  emission maxima: 500 nm
[5]
  fluorescence intensity enhancement: about 55 fold
[1]
  specificity to mitochondria after CCCP treatment: perfectly retained
  uptake / imaging signal (sensitivity) after CCCP treatment: perfectly retained
[6]
  fluorescence quantum yield (QY): 33%

## ClCc1ccc(C2=c3cc4c5c(c3Oc3c2cc2c6c3CCCN6CCC2)CCC[N+]=5CCC4)cc1.[Cl-] [MT, reference compound]
[7]
  time to stain living cells: longer time
[3]; hMSCs, 5 μM, 24 hours
  viable cells: less than 10%
[1]
  specificity to mitochondria after CCCP treatment: specificity became worse
  uptake / imaging signal (sensitivity) after CCCP treatment: decreased by more than half
